The subject of one experiment is MDA-MB-231. In words: Growth inhibition of human MDA-MB-231 cells measured after 72 hrs by microplate reader analysis. The format is functional.
A further experiment concerns RPMI-7951. In words: Growth inhibition of human RPMI-7951 cells measured after 72 hrs by microplate reader analysis. The format is functional, cell-based. The settings on record: for GI50: RPMI-7951, time 72 hrs.
The test system of a further experiment is P388. Nature of the experiment: Antiproliferative activity against mouse P388 cells assessed as cell growth inhibition. It counts as functional, cell-based.
The next experiment relates to L1210. In words: Antiproliferative activity against mouse L1210 cells assessed as cell growth inhibition. The format is functional, cell-based.
A short description of experiment [1]: Antiproliferative activity against human Molt 4/C8 cells assessed as cell growth inhibition. The settings on record: Molt4/C8. The format is functional, cell-based.
The test system of a further experiment is CCRF-CEM. In words: Antiproliferative activity against human CEM cells assessed as cell growth inhibition. It counts as functional, cell-based.

SMILES strings stand for the structures.

The GI50 is the concentration giving 50% growth inhibition. Lower therefore signals greater sensitivity of the cells. One may read the IC50 as the point on the concentration scale where inhibition reaches its midpoint.

As for `COc1ccccc1/C=C/C(=O)/C=C/c1ccccc1OC`, the GI50 in the experiment with MDA-MB-231 was 1000 nM; in the experiment with RPMI-7951 it was 2300 nM.

In the case of `O=C1/C(=C/c2ccc(Cl)c(Cl)c2)CNC/C1=C\c1ccc(Cl)c(Cl)c1`, the half-inhibitory concentration (IC50) (with P388; with L1210; in experiment [1]; in the experiment on CCRF-CEM) was 810 nM each time.

For the compound `CC(=O)Oc1ccccc1/C=C/C(=O)/C=C/c1ccccc1OC(C)=O`, the GI50 in the experiment with MDA-MB-231 was determined as 1000 nM; with RPMI-7951 it was 2300 nM.

On to `C=CC(=O)N1C/C(=C\c2ccc(F)cc2)C(=O)/C(=C/c2ccc(F)cc2)C1`, for which the IC50 (in the experiment on P388; in the experiment on L1210; in experiment [1]; in the experiment on CCRF-CEM) was 280 nM in each case.

Turning to `O=C1/C(=C/c2ccc(Cl)cc2)CNC/C1=C\c1ccc(Cl)cc1`, the IC50 (in the experiment on P388; with L1210; in experiment [1]; in the experiment with CCRF-CEM) was 810 nM throughout.

For `O=C1/C(=C/c2ccccc2)CN(C(=O)/C=C/c2ccc(Cl)cc2)C/C1=C\c1ccccc1`, the IC50 with P388 was 221 nM; with L1210, 5340 nM; in experiment [1], 1600 nM; in the experiment on CCRF-CEM it was 1610 nM.

Turning to `COc1ccc(C(=O)/C=C/c2ccc(C(=O)N3C/C(=C\c4ccccc4)C(=O)/C(=C/c4ccccc4)C3)cc2)cc1`, the IC50 in the experiment with P388 turned out to be 221 nM; with L1210, 5340 nM; in experiment [1], 1600 nM; in the experiment with CCRF-CEM it was 1610 nM.

For the compound `O=C1/C(=C/c2ccccc2)CN(C(=O)/C=C/c2ccc([N+](=O)[O-])cc2)C/C1=C\c1ccccc1`, the IC50 was 221 nM in the experiment on P388, 5340 nM with L1210, 1600 nM in experiment [1] and 1610 nM in the experiment on CCRF-CEM.

On to `C=CC(=O)N1C/C(=C\c2ccc(OC)cc2)C(=O)/C(=C/c2ccc(OC)cc2)C1`, for which the IC50 (in the experiment with P388; in the experiment with L1210; in experiment [1]; in the experiment on CCRF-CEM) was 280 nM each time.

Take `O=C1/C(=C/c2ccccc2F)COC/C1=C\c1ccccc1F`: the GI50 in the experiment with MDA-MB-231 and with RPMI-7951 was 800 nM throughout.

For `O=C1/C(=C/c2ccccc2)CN(C(=O)c2ccc(/C=C/C(=O)c3ccc(Cl)cc3)cc2)C/C1=C\c1ccccc1`, the IC50 in the experiment with P388 stood at 221 nM; in the experiment on L1210, 5340 nM; in experiment [1], 1600 nM; in the experiment on CCRF-CEM it was 1610 nM.

`Cc1ccc(C(=O)/C=C/c2ccc(C(=O)N3C/C(=C\c4ccccc4)C(=O)/C(=C/c4ccccc4)C3)cc2)cc1C`: the half-maximal inhibitory concentration (IC50) turned out to be 221 nM in the experiment on P388, 5340 nM in the experiment with L1210, 1600 nM in experiment [1] and 1610 nM in the experiment with CCRF-CEM.

`O=C1/C(=C/c2ccccc2)CN(C(=O)c2ccc(/C=C/C(=O)c3ccc(Cl)c(Cl)c3)cc2)C/C1=C\c1ccccc1`: the IC50 in the experiment on P388 is 221 nM; in the experiment on L1210, 5340 nM; in experiment [1], 1600 nM; in the experiment on CCRF-CEM, 1610 nM.

`O=C1/C(=C/c2ccccc2)CN(C(=O)c2ccc(/C=C/C(=O)c3ccc([N+](=O)[O-])cc3)cc2)C/C1=C\c1ccccc1`: the IC50 in the experiment with L1210 turned out to be 5340 nM; in experiment [1], 1600 nM; in the experiment on CCRF-CEM, 1610 nM.

Consider `O=C1/C(=C/c2ccccc2O)COC/C1=C\c1ccccc1O`, for which the GI50 with MDA-MB-231 and in the experiment on RPMI-7951 was 800 nM each time.

As for `COc1ccc(C(=O)/C=C/c2ccc(C(=O)N3C/C(=C\c4ccccc4)C(=O)/C(=C/c4ccccc4)C3)cc2)cc1OC`, the IC50 in the experiment with P388 is 221 nM; in the experiment with L1210 it was 5340 nM; in experiment [1] it was 1600 nM; in the experiment on CCRF-CEM, 1610 nM.

`COc1ccc(/C=C/C(=O)N2C/C(=C\c3ccccc3)C(=O)/C(=C/c3ccccc3)C2)cc1`: the IC50 in the experiment on P388 came out at 221 nM; with L1210, 5340 nM; in experiment [1] it was 1600 nM; in the experiment on CCRF-CEM it was 1610 nM.

In the case of `O=C1/C(=C/c2ccccc2)CN(C(=O)/C=C/c2ccc(Cl)c(Cl)c2)C/C1=C\c1ccccc1`, the IC50 came out at 221 nM in the experiment on P388, 5340 nM in the experiment on L1210, 1600 nM in experiment [1] and 1610 nM in the experiment on CCRF-CEM.

For the compound `CN(C)c1ccc(/C=C2\CNC/C(=C\c3ccc(N(C)C)cc3)C2=O)cc1`, the IC50 (in the experiment with P388; with L1210; in experiment [1]; in the experiment with CCRF-CEM) was 810 nM each time.

Regarding `C=CC(=O)N1C/C(=C\c2ccccc2)C(=O)/C(=C/c2ccccc2)C1`, the IC50 (with P388; with L1210; in experiment [1]; with CCRF-CEM) was 280 nM each time.

For `Cc1ccc(C(=O)/C=C/c2ccc(C(=O)N3C/C(=C\c4ccccc4)C(=O)/C(=C/c4ccccc4)C3)cc2)cc1`, the IC50 in the experiment with P388 is 221 nM; with L1210, 5340 nM; in experiment [1], 1600 nM; with CCRF-CEM it was 1610 nM.

Turning to `C=CC(=O)N1C/C(=C\c2ccc(Cl)c(Cl)c2)C(=O)/C(=C/c2ccc(Cl)c(Cl)c2)C1`, the IC50 (in the experiment on P388; with L1210; in experiment [1]; in the experiment on CCRF-CEM) was 280 nM in each case.

With `COc1cc(/C=C/C(=O)N2C/C(=C\c3ccccc3)C(=O)/C(=C/c3ccccc3)C2)cc(OC)c1OC`, the IC50 is 221 nM in the experiment on P388, 5340 nM in the experiment on L1210, 1600 nM in experiment [1] and 1610 nM with CCRF-CEM.

Take `C=CC(=O)N1C/C(=C\c2ccc(Cl)cc2)C(=O)/C(=C/c2ccc(Cl)cc2)C1`: the IC50 (with P388; in the experiment on L1210; in experiment [1]; in the experiment with CCRF-CEM) was 280 nM in each case.

Regarding `COc1ccc(/C=C/C(=O)N2C/C(=C\c3ccccc3)C(=O)/C(=C/c3ccccc3)C2)cc1OC`, the IC50 in the experiment with P388 stood at 221 nM; with L1210, 5340 nM; in experiment [1], 1600 nM; in the experiment on CCRF-CEM, 1610 nM.

In the case of `C=CC(=O)N1C/C(=C\c2ccc(N(C)C)cc2)C(=O)/C(=C/c2ccc(N(C)C)cc2)C1`, the IC50 (in the experiment on P388; in the experiment with L1210; in experiment [1]; with CCRF-CEM) was 280 nM throughout.

Regarding `COc1ccc(/C=C2\CNC/C(=C\c3ccc(OC)cc3)C2=O)cc1`, the IC50 (in the experiment with P388; in the experiment on L1210; in experiment [1]; with CCRF-CEM) was 810 nM throughout.

`O=C1/C(=C/c2ccccc2)CNC/C1=C\c1ccccc1`: the half-inhibitory concentration (IC50) (with P388; with L1210; in experiment [1]; with CCRF-CEM) was 810 nM throughout.

`O=C1/C(=C/c2ccccc2)CN(C(=O)c2ccc(/C=C/C(=O)c3ccccc3)cc2)C/C1=C\c1ccccc1`: the IC50 is 221 nM in the experiment with P388, 5340 nM in the experiment on L1210, 1600 nM in experiment [1] and 1610 nM in the experiment on CCRF-CEM.

As for `O=C1/C(=C/c2ccc(F)cc2)CNC/C1=C\c1ccc(F)cc1`, the IC50 (in the experiment on P388; in the experiment with L1210; in experiment [1]; in the experiment with CCRF-CEM) was 810 nM each time.

On to `O=C1/C(=C/c2ccc([N+](=O)[O-])cc2)CNC/C1=C\c1ccc([N+](=O)[O-])cc1`, for which the half-inhibitory concentration (IC50) (with P388; in the experiment with L1210; in experiment [1]; with CCRF-CEM) was 810 nM in each case.

For the compound `Cc1ccc(/C=C/C(=O)N2C/C(=C\c3ccccc3)C(=O)/C(=C/c3ccccc3)C2)cc1`, the IC50 in the experiment with P388 was 221 nM; with L1210 it was 5340 nM; in experiment [1] it was 1600 nM; in the experiment on CCRF-CEM, 1610 nM.

Regarding `O=C1/C(=C/c2ccccc2)CN(C(=O)/C=C/c2ccccc2)C/C1=C\c1ccccc1`, the IC50 came out at 221 nM with P388, 5340 nM in the experiment on L1210, 1600 nM in experiment [1] and 1610 nM in the experiment with CCRF-CEM.

Regarding `O=C1/C(=C/c2ccccc2)CN(C(=O)/C=C/c2ccc3c(c2)OCO3)C/C1=C\c1ccccc1`, the IC50 with P388 was 221 nM; in the experiment with L1210 it was 5340 nM; in experiment [1], 1600 nM; with CCRF-CEM it was 1610 nM.

For `C=CC(=O)N1C/C(=C\c2ccc([N+](=O)[O-])cc2)C(=O)/C(=C/c2ccc([N+](=O)[O-])cc2)C1`, the IC50 (in the experiment on P388; with L1210; in experiment [1]; with CCRF-CEM) was 280 nM in each case.

For the compound `O=C1/C(=C/c2ccccc2F)CNC/C1=C\c1ccccc1F`, it took 800 nM to inhibit growth in the experiment with MDA-MB-231 by half (GI50). In the experiment with RPMI-7951 (RPMI-7951, 72 h), this compound gave an IC50 of 700 nM.

On to `O=C1/C(=C/c2ccccc2)CN(C(=O)c2ccc(/C=C/C(=O)c3ccc(O)cc3)cc2)C/C1=C\c1ccccc1`, for which the figures for the IC50 (in the experiment with P388; in experiment [1]; with CCRF-CEM) were 221 nM, 1600 nM and 1610 nM, respectively.
